Literature values, collected in patent US11317628B2, “Microparticle compositions comprising saflufenacil” (BASF Agro B.V., priority 2015, dated 2022).

Settings: background statement

Structure (SMILES): CC(C)N(C)S(=O)(=O)NC(=O)c1cc(-n2c(=O)cc(C(F)(F)F)n(C)c2=O)c(F)cc1Cl [Saflufenacil, 2-chloro-5-[3,6-dihydro-3-methyl-2,6-dioxo-4-(trifluoromethyl)-1-(2H)pyrimidinyl]-4-fluoro-N-[[methyl(1-methylethyl)amino]sulfonyl]benzamide]
- Solubility in water: only sparingly soluble in water
